# Reference: publication PMC12045974, “T cell toxicity induced by tigecycline binding to the mitochondrial ribosome” (Nature Communications, 2025)
# pIC50: −log10 of the molar value. Values joined by “and” are separate entries in the source; they are usually repeats but may differ in a detail not shown here. Identical values can stand only once. Like-named read-outs stand apart in the source and are kept apart here.
# Key:
# PBMCs = assay: Cell viability assay (CCK-8), PBMCs; format: cell-based, human; details: 72 h
# How it was run: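 Buffy-coat PBMCs were seeded at 15,000 cells/well in RPMI-1640 with 10% FBS, 2.05 mM L-glutamine and 55 μM 2-ME. Cells were exposed for 72 h at 37 °C, 5% CO2 to 9 concentrations, up to 300 μM for tetracyclines and up to 900 μM for other inhibitors, with DMSO controls. CCK-8 read after 4 h; IC50 from dose-response curves.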
# Jurkat T cells = assay: Cell viability assay (CCK-8), Jurkat T cells; format: cell-based, human; details: 72 h; for cell vialibity normalized to Vehicle (DMSO): Jurkat, Fig. 1A, in % (unit assumed)
# How it was run: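 This CCK-8 viability assay used Jurkat T cells seeded at 6000 per well and grown in supplemented RPMI-1640, 100 μl per well. Antibiotic stocks in DMSO were diluted in medium to give 9 concentrations, and untreated wells received matching DMSO. After treatment, cells were incubated with 10% CCK-8 for 3 h. Results were normalized to vehicle, technical repeats were plotted as mean ± SEM, and IC50 values were derived.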
# HeLa cells = assay: Cell viability assay (CCK-8), HeLa cells; format: cell-based; details: 10 μM
# How it was run: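 Viability of HeLa cells was measured with Cell Counting Kit-8 after treatment with drug dilutions in 96-well plates (2000 cells/well, DMEM plus 10% FBS and 2.05 mM L-glutamine, humidified 37 °C, 5% CO2). Untreated wells received equal DMSO. After 1 h CCK-8 incubation, technical-repeat dose-response curves were plotted and IC50 values calculated in GraphPad Prism.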
# [1] = test system: mitochondrial translation; assay: 35S metabolic labeling, de novo mitochondrial translation assay in Jurkat T cells; format: cell-based, human; details: 5 μM, 18 h of treatment
# Description: Jurkat T cells were seeded in 6-well plates at a density of 1 million cells/ml and cultured with different concentrations of antibiotics for 18 h in RPMI-1640 medium (with 10% FBS, 2.05 mM L-glutamine (Sigma), and 55 μM 2-ME (Gibco)). After centrifugation, cells were incubated twice for 5 min at 37 °C in Cys-/Met-free medium (DMEM, high glucose, no glutamine, no methionine, no cysteine, supplemented with 10% dialyzed fetal bovine serum, 1× GlutaMax, and sodium pyruvate), followed by 20 min incubation at 37 °C in Cys-/Met-free medium supplemented with 100 µg/ml emetine to inhibit cytosolic translation (only for mitochondrial translation groups). Subsequently, 1 ml Cys-/Met-free medium supplemented with 200 (for cytosolic translation) or 400 µCi (for mitochondrial translation) of EasyTag EXPRESS [^35S] protein labeling mix (methionine and cysteine) (Perkin Elmer) were added to each sample and incubated for 20 min at 37 °C, 5% CO2. Following labeling, cells were washed three times with 1 ml PBS, harvested by centrifugation (400 × g, 10 min, 4 °C), and stored at −20 °C. Cells were lysed by resuspension in 30 µl PBS supplemented with a Complete EDTA-free protease inhibitor cocktail and 50 U Benzonase nuclease (Sigma) and by application of one freeze-thaw cycle. Protein contents were determined by Pierce BCA assay (Thermo Fisher). […]
# [2] = Homo sapiens, PBMC, PBMCs, Fig. 1A, read-out: cell vialibity normalized to Vehicle (DMSO)
# [3] = Homo sapiens, PBMC, PBMCs, Fig. 1B, read-out: cell vialibity normalized to Vehicle (DMSO)
compound,measurement,setting,value
"CN(C)c1cc(NC(=O)CNC(C)(C)C)c(O)c2c1C[C@H]1C[C@H]3[C@H](N(C)C)C(O)=C(C(N)=O)C(=O)[C@@]3(O)C(O)=C1C2=O [Tigecycline, tigecycline]",toxicity to PBMCs in comparison with other bacterial protein synthesis inhibitors,PBMCs; Fig. 1B,greatest toxicity to PBMCs
same,viability at 0.137174 µM,"PBMCs; Homo sapiens, PBMC, PBMCs, dose 0.137174 μM, Fig. 1B, read-out: cell vialibity normalized to Vehicle (DMSO)",103%
same,viability at 0.411523 µM,PBMCs; [2],83.9%
same,viability at 0.411523 µM,PBMCs; [3],89.9%
same,viability at 1.23457 µM,PBMCs; [2],75.3%
same,viability at 1.23457 µM,PBMCs; [3],65.1%
same,viability at 3.7037 µM,"PBMCs; Homo sapiens, PBMC, PBMCs, dose 3.7037 μM, Fig. 1B, read-out: cell vialibity normalized to Vehicle (DMSO)",39.4%
same,viability at 11.1111 µM,"PBMCs; Homo sapiens, PBMC, PBMCs, dose 11.1111 μM, Fig. 1A, read-out: cell vialibity normalized to Vehicle (DMSO)",44.2%
same,viability at 33.3333 µM,PBMCs; [2],38.8%
same,viability at 33.3333 µM,PBMCs; [3],21.2%
same,viability at 100 µM,PBMCs; [2],20.8%
same,viability at 100 µM,PBMCs; [3],17.6%
same,pIC50,"PBMCs; Homo sapiens, PBMC, PBMCs, after 3 days of treatment, read-out: IC50 (cell survival)",5.03 to 5.69
same,pIC50,"Jurkat T cells; Homo sapiens, Jurkat T cells, after 3 days of treatment, read-out: IC50 (cell survival)",5.51 to 5.53
same,cell vialibity normalized to Vehicle (DMSO),Jurkat T cells; dose 0.0457247 μM,109.956 and 111.249 and 111.849
same,cell vialibity normalized to Vehicle (DMSO),Jurkat T cells; dose 0.137174 μM,103.553 and 105.77 and 101.862
same,cell vialibity normalized to Vehicle (DMSO),Jurkat T cells; dose 0.411523 μM,97.7193 and 94.1885 and 95.1333
same,cell vialibity normalized to Vehicle (DMSO),Jurkat T cells; dose 1.23457 μM,79.9123 and 80.3238 and 79.0851
same,cell vialibity normalized to Vehicle (DMSO),Jurkat T cells; dose 3.7037 μM,38.8158 and 37.5675 and 38.722
same,cell vialibity normalized to Vehicle (DMSO),Jurkat T cells; dose 11.1111 μM,18.2456 and 17.144 and 16.3775
same,cell vialibity normalized to Vehicle (DMSO),Jurkat T cells; dose 33.3333 μM,11.1842 and 10.0457 and 10.0296
same,cell vialibity normalized to Vehicle (DMSO),Jurkat T cells; dose 100 μM,4.123 and 3.321 and 4.232
same,cell vialibity normalized to Vehicle (DMSO),Jurkat T cells; dose 300 μM,2.237 and 2.989 and 2.158
same,HeLa cell survival,HeLa cells,relatively resistant
same,inhibition of mitochondrial translation,[1],inhibited mitochondrial translation
